Laboratory results as given in patent US9358252B2, “Polysaccharide compositions and methods of use for the treatment and prevention of disorders associated with progenitor cell mobilization” (MOMENTA PHARMACEUTICALS, INC., priority 2007, dated 2016).

Experiments:
[1] = tested on: C170HM2 human colorectal tumor cells; assay: C170HM2 colon cancer metastasis to the liver model; format: in vivo, MF1 nude (nu/nu) athymic mice; conditions: 25 mg/kg i.v. cycled on days 1, 3, 5, 7; liver tumors day 35
Experimental: Liver metastasis was initiated by intraperitoneal injection of C170HM2 human colorectal tumor cells into male MF1 nude (nu/nu) athymic mice. 5FU/leucovorin was used as a positive control.
C170HM2 cells were maintained in vitro in RPMI culture medium (Sigma) containing 10% (v/v) heat inactivated fetal bovine serum and 2 mM L-glutamine at 37° C. in 5% CO2 and humidified conditions. Cells from sub-confluent monolayers were harvested with 0.025% EDTA, washed in culture medium and re-suspended in sterile phosphate buffered saline, pH 7.4 (PBS) for in vivo administration. 1.5×10^6 cells in a volume of 1 ml were injected intraperitoneally into 65 mice, and the mice were allocated into treatment groups as below.
Treatment was initiated on day 1 following cell injection and continued until day 35 or until the clinical condition of the animal required termination. Groups 5 and 6 missed one dose on day 5. No adverse affects of the test compounds in mice bearing the tumors were observed.
The study was terminated on day 35, and the tumors in the liver were excised and weighed. The numbers of lung nodules are also counted.

4T1 cells [2] = assay: 4T1 breast cancer metastasis to the lung model, daily treatment; format: in vivo, BALB/c mice; conditions: Cisplatin weekly from day 5
Experimental: Female BALB/c mice 8 weeks of age (WOA) were injected with 8×10^4 4T1 cell intra mammary fat pad. Daily treatment with saline or MONC402 with or without weekly treatment of cisplatin started on day 5. Primary tumors were removed on day 9 and weighed.

4T1 cells [3] = assay: Second 4T1 experiment, osmotic pump delivery; format: in vivo, BALB/c mice; conditions: MONC402 20 mg/kg/day osmotic pump; Cisplatin 1.25 mg/kg weekly; day 32
Experimental: FIG. 2 is a bar graph showing the effect of a polysaccharide preparation described herein in a 4T1 therapeutic model of breast cancer metastasis to the lung. Lung tumor burden (lung weight-normal lung weight) was determined on day 32 for female BALB/c mice (8 weeks old) challenged with intra-mammary fat pad injection of 8×10^4 4T1 cells and treated as indicated starting on day 4. In a second 4T1 experiment, female BALB/c mice 8 WOA were injected with 8×10^4 4T1 cells intra mammary fat pad. Continuous osmotic pump delivery of saline or MONC 402 with weekly treatment of saline or Cisplatin started on day 4. Primary tumors were removed on day 9. […] The experiment terminated on day 32 and different samples were taken. 6 mice were either found dead or were terminated early due to worsened overall condition. 4T1 lung metastases were determined by lung weight, lung tumor nodule quantification including nodule number, size and calculated tumor volume, as well as histological quantification.

[4] = tested on: endothelial progenitor cells (EPC); assay: EPC mobilization in normal mice, single MONC402 dose; format: in vivo; conditions: G-CSF 200 μg/kg 3 days; docetaxel i.p. 40 mg/kg; cisplatin i.p. 6 mg/kg; 24 h
Experimental: In one experiment, normal mice were treated with G-CSF (s.c., 3 consecutive days), docetaxel or cisplatin (one i.p. dose) with or without simultaneous MONC402 treatment (one s.c. dose). EPC mobilization was monitored 24 h later. Mice (8 mice/group) were dosed s.c. with Saline or MONC402 (40 mg/kg) (or DC101 at 40 mg/kg for control with docetaxel). About 30 min later, mice were given docetaxel (i.p., 40 mg/kg), cisplatin (i.p., 6 mg/kg), or saline control. As a positive control, 2 groups of mice were also dosed with G-CSF […]. (200 μg/kg) for 3 days, either alone or in combination with a single dose of MONC402 (s.c. at 40 mg/kg) on the last day. 24 h later, the mice were euthanized, and 0.5-0.8 mL of blood taken by cardiac puncture:
About 300 μL of whole blood was transferred directly into 14 mL of lysis buffer for flow cytometry of EPC. The remaining 300-600 μL were processed for serum (SDF-1α). For flow cytometry, lysed cells were washed and blocked, then stained with CD13-FITC, CD117-PE, 7-AAD, VEGFR2-APC, and CD45-PE/Cy7. A total of 50,000 cells were acquired per sample in the PBMNC gate.

[5] = tested on: endothelial progenitor cells (EPC); assay: Docetaxel induced EPC mobilization in 4T1 tumor bearing mice, MONC402 via osmotic pump; format: in vivo; conditions: Docetaxel 40 mg/kg i.p. Day 6; MONC402 osmotic pump 40 mg/kg/day monotherapy
Experimental: A third experiment was conducted to evaluate the effect of MONC402 on EPC mobilization in response to treatment with docetaxel in 4T1 tumor bearing mice.
4T1 tumors were implanted on Day 0 at 1×10^5 cells/mouse into the 4th mammary fat pad. Pumps with Saline or MONC402 were implanted on Day 0, immediately after tumor cell injections. Mice were randomized to the following groups: • 1. Saline Control, n=8 • 2. Docetaxel, 40 mg/kg, Day 6, n=8 • 3. M402, pump, 40 mg/kg/day, Day 0, n=8 • 4. Docetaxel, 40 mg/kg, Day 6+M402, pump, 40 mg/kg/day, Day 0, n=8
Docetaxel or Saline was administered i.p. on Day 6 in the AM. Four h later, mice were bled by submandibular plexus for EPC profiling and soluble factor analysis. Primary tumors were removed on Day 9 for histological analyses. Blood was also collected for soluble factor analyses (72 h after docetaxel dosing). Serum samples were analyzed using a 19-plex Luminex kit. In addition, samples were also tested for SDF-1α levels by ELISA.

[6] = tested on: endothelial progenitor cells (EPC); assay: EPC mobilization in mice, second experiment (daily MONC402 with G-CSF); format: in vivo; conditions: G-CSF 200 μg/kg s.c. 5 consecutive days; docetaxel i.p. 40 mg/kg
Experimental: In a second experiment, it was tested if daily dosing for 5 days with MONC402 would generate a stronger inhibitory effect on EPC mobilization caused by treatment with a taxane.
Mice (10 mice/group) were dosed s.c. with Saline or MONC402 (40 mg/kg), or DC101 (40 mg/kg, as a positive inhibition control with docetaxel). About 30 min later, mice were given docetaxel (i.p., 40 mg/kg) or saline control. As a positive control, 2 groups of mice were also dosed with G-CSF (200 μg/kg) s.c. for 5 consecutive days±daily MONC402. 24 h later, the mice were euthanized, and 500-800 μL of blood taken by cardiac puncture. 150 μL were transferred into 5 mL of lysis buffer for flow cytometric analysis of EPC. The remaining 350-500 μL were processed for serum (SDF-1α). For flow cytometry, cells were washed and blocked and then stained with CD13-FITC, CD117-PE, 7-AAD, VEGFR2-APC, and CD45-PE/Cy7. A total of 50,000 cells were acquired per sample in the PBMNC gate.

What does the source list for 5FU/leucovorin?
Mean tumor area (% of vehicle) [1]: 15.7 % of vehicle; Mean tumor area (mm^2) [1]: 13.12 mm^2; Mean tumor weight [1]: 0.037 g; Mean tumor weight (% of vehicle) [1]: 11.94 % of vehicle

Which “Average lung tumor size” value (4T1 cells [2]) does the source give for N.N.[Cl][Pt][Cl] [Cisplatin, cisplatin] here?
Its value is 1.41.

What about the Average tumor size (4T1 cells [2]) of the same molecule?
Its Average tumor size is 1.36.

And the “Lung tumor nodule #/animal” value (4T1 cells [2])?
Its value is 5.6 ± 4.4.

And the Total tumor nodule (4T1 cells [2])?
Its Total tumor nodule is 89.

And the Total tumor volume (4T1 cells [2])?
Its Total tumor volume is 134.13.

And the 4T1 lung metastasis (4T1 cells [3])?
The 4T1 lung metastasis was “significant anti-tumor efficacy”.

And the “EPC mobilization compared to Saline control” value [4]?
The value was “did not show this effect”.

Which results are given for CC(=O)O[C@@]12CO[C@@H]1C[C@H](O)[C@@]1(C)C(=O)[C@H](O)C3=C(C)[C@@H](OC(=O)[C@H](O)[C@@H](NC(=O)OC(C)(C)C)c4ccccc4)C[C@@](O)([C@@H](OC(=O)c4ccccc4)[C@H]21)C3(C)C [Docetaxel, docetaxel]?
EPC mobilization compared to Saline control [4]: significant increase; EPC in the blood at 4 h [5]: significant increase; EPC mobilization [6]: significant increase

B1: granulocyte colony stimulating factor (protein, UniProt P09919 31-207, looked up)
Granulocyte …: TPLGPASSLPQSFLLKCLEQVRKIQGDGAALQEKLVSECATYKLCHPEELVLLGHSLGIPWAPLSSCPSQALQLAGCLSQLHSGLFLYQGLLQALEGISPELGPTLDTLQLDVADFATTIWQQMEELGMAPALQPTQGAMPAFASAFQRRAGGVLVASHLQSFLEVSYRVLRHLAQP
notes: growth factor used as positive control for EPC and MDSC mobilization
With B1 as the molecule, how does the “EPC mobilization compared to Saline control” value [4] read?
Its value is “significant increase”.

What about the EPC mobilization [6] of the same molecule?
The EPC mobilization was “significant increase”.
